Measurements taken from the NIST ThermoML archive (doi:10.1016/j.fluid.2016.02.009).

Settings: Liquid, Vibrating tube method

COC(C)(C)C [2-methoxy-2-methylpropane]
mass density [kg/m3]
Settings | 283.15 K | 288.15 K | 293.15 K | 298.15 K | 303.15 K | 308.15 K | 313.15 K | 318.15 K | 323.15 K
100 kPa | 750.94 | 745.79 | 740.59 | 735.34 | 730.04 | 724.69 | 719.29 | 713.84 | 708.45
5000 kPa | 756.29 | 751.33 | 746.34 | 741.32 | 736.27 | 731.19 | 726.07 | 720.92 | 715.73
10000 kPa | 761.29 | 756.52 | 751.7 | 746.89 | 742.05 | 737.18 | 732.27 | 727.36 | 722.39
15000 kPa | 765.93 | 761.32 | 756.68 | 752.04 | 747.37 | 742.69 | 737.97 | 733.26 | 728.51
20000 kPa | 770.32 | 765.86 | 761.35 | 756.85 | 752.37 | 747.84 | 743.29 | 738.74 | 734.2
25000 kPa | 774.48 | 770.15 | 765.77 | 761.42 | 757.05 | 752.67 | 748.27 | 743.91 | 739.51
30000 kPa | 778.47 | 774.24 | 770.01 | 765.75 | 761.51 | 757.26 | 752.99 | 748.75 | 744.49
35000 kPa | 782.29 | 778.15 | 774 | 769.88 | 765.74 | 761.6 | 757.46 | 753.35 | 749.2
40000 kPa | 785.94 | 781.89 | 777.85 | 773.81 | 769.79 | 765.75 | 761.71 | 757.7 | 753.67
45000 kPa | 789.45 | 785.49 | 781.54 | 777.6 | 773.65 | 769.71 | 765.77 | 761.86 | 757.92
50000 kPa | 792.86 | 788.97 | 785.09 | 781.23 | 777.36 | 773.49 | 769.65 | 765.83 | 761.98
55000 kPa | 796.13 | 792.3 | 788.51 | 784.71 | 780.95 | 777.14 | 773.39 | 769.63 | 765.85
60000 kPa | 799.29 | 795.55 | 791.81 | 788.1 | 784.37 | 780.65 | 776.97 | 773.29 | 769.61
65000 kPa | 802.37 | 798.67 | 795 | 791.36 | 787.7 | 784.04 | 780.41 | 776.82 | 773.22
